Experiments:
[1] = system: endogenous ceramide in the retina of rd10 mutant mice; experiment: Retinal endogenous ceramide levels (diacylglycerol kinase test) after single intravitreal injection, rd10 mice; type: in vivo, mouse; settings: single intravitreal injection 500 nanoliters 188 mM at P19, retinas isolated at P21
Description: (§1) The levels of the sphingolipid endogenous ceramide were tested after isolation of the retina from anaesthetised rd10 mutant and wild-type (wt) mice of various age groups. The isolated retinas were treated for lipid extraction, and the total endogenous ceramide/inorganic phosphate ratio was determined with the diacylglycerol kinase test.
(§2) Single intravitreal injections of 500 nanoliters of myriocin (188 mM) were administered to the right eye of rd10 and wt mice aged P19. The vehicle alone (DMSO) was injected into the left eye of the same animals. The left and right retinas were isolated at P21, and treated separately for the biochemical ceramide test as explained above.

[2] = system: endogenous ceramide in the retina of wt mice; experiment: Retinal endogenous ceramide levels (diacylglycerol kinase test) after single intravitreal injection, wt mice; type: in vivo, mouse; settings: single intravitreal injection 500 nanoliters 188 mM at P19, retinas isolated at P21
Description: as §1, §2

[3] = system: pyknotic photoreceptors of rd10 mice; experiment: Pyknotic photoreceptor count after intravitreal injection; type: in vivo, mouse
Description: as §2
The animals injected at P19 were collected at P21, and their eyes were enucleated and fixed. The left and right retinas were isolated, stained with fluorescent DNA-binding molecules, and mounted on slides. The external nuclear layer which contains the photoreceptor cores was sampled under the confocal microscope at regular intervals along the four retinal meridians. The images were exported to a computerised workstation, and the pyknotic photoreceptors were counted in each scanned field. The total number of pyknotic photoreceptors was calculated for each pair of treated and control retinas.

[4] = system: retinal morphology of rd10, wt and Thy1-GFP mice; settings: mouse, in vivo
[5] = system: rd10 and wt mice; experiment: Toxicity studies of intraocular injections; type: in vivo, mouse
From the text: It should be noted that myriocin has only rarely been used in vivo to date, and never injected intraocularly. The dose was chosen on the basis of the available literature on cultured cells, calculating a dilution of ⅞ times, due to the vitreous humour. A time window was selected for intraocular administration which preceded the peak death of the apoptotic photoreceptors, for the crucial reason of preventing the majority of photoreceptors from entering the apoptotic cycle.

[6] = system: photoreceptors of rd10 mice; settings: mouse, in vivo
From the text: The functional recovery of the photoreceptors was studied by recording a flash electroretinogram (ERG), a technique widely used to test the retinal physiology of human patients, especially those suffering from RP.

[7] = system: photoreceptors of rd10 mice; experiment: Rows of photoreceptor nuclei in the outer nuclear layer (ONL) after nanosphere eyedrops; type: in vivo; settings: rd10 mice aged P24, MYR-SLN treated vs control mouse (FIG. 1a)
From the text: Following ERG recordings, animals were enucleated, their eyes fixed and sectioned and retinal sections stained with fluorescent nuclear dyes to evaluate the thickness of the outer nuclear layer (ONL) and the overall retinal morphology.
A quantitative analysis of the average number of rows of nuclei in the ONL of MYR-SLN and U-SLN (Unloaded-Solid Lipid Nanospheres) treated mice is given in FIG. 1b.

Structure (SMILES): CCCCCCC(=O)CCCCCC/C=C/C[C@@H](O)[C@H](O)[C@@](N)(CO)C(=O)O [myriocin]
- retinal ceramide levels vs control (DMSO) eyes [1]: Significantly lower ceramide levels
- retinal ceramide levels [2]: did not significantly reduce
- reduction of photoreceptor death rate (pyknotic photoreceptor count) ([3]; rd10 mice injected at P19, collected at P21, vs DMSO eye, n=17): approx. 50%
- number of pyknotic (dying) photoreceptors ([3]; rd10 mutant mice, intravitreal injection): marked reduction
- morphology of ganglion cells and retinal stratification [4]: excellent maintenance of the morphology of the ganglion cell and structure
- retinal morphology [4]: normal retinal morphologies
- adverse effects of intraocular injections ([5]; rd10 or wt mice): do not cause adverse effects
- inflammatory response symptoms or increased ocular reactivity ([5]; treated animals, intraocular injection): no general or local inflammatory response symptoms
- recovery of ERG response [6]: no recovery of ERG response/reaction
- number of preserved nuclear rows in the ONL [7]: significantly higher
